Source: patent US11746098B2, “Proteasome activity enhancing compounds” (Proteostasis Therapeutics, Inc., priority 2018, dated 2023)

target: USP14 (Homo sapiens, UniProt P54578); assay: USP14 Inhibition Assay; format: biochemical; settings: average value from a minimum of two experimental determinations, read-out: IC50 Category
Text: The activity of the compound described herein to inhibit USP14 can be measured using previously described methodology [B. H. Lee et al. Nature 2010, 467 (9), 179, the contents of which are expressly incorporated by reference herein].
Example 6: USP14 Inhibition Assay

Row | Structure (SMILES) | IC50 [µM]
1 | Cc1ccc(C(=O)CN2CCCCC2)n1-c1ccc(Cl)cc1 [Compound 33, 1-(1-(4-Chlorophenyl)-5-methyl-1H-pyrrol-2-yl)-2-(piperidin-1-yl)ethanone] | > 5
2 | Cc1cc(Cl)cc(C)c1-n1cccc1C(=O)CN1CCCC1 [Compound 28, 1-(1-(4-Chloro-2,6-dimethylphenyl)-1H-pyrrol-2-yl)-2-(pyrrolidin-1-yl)ethanone] | > 5
3 | Cc1cc(C(=O)CNCCO)c(C)n1-c1ccc(C#N)cc1 [Compound 77, 4-(3-(2-((2-Hydroxyethyl)amino)acetyl)-2,5-dimethyl-1H-pyrrol-1-yl)benzonitrile] | 0.5 to 5
4 | Cc1cc(C(=O)CNC2CCCCCC2)c(C)n1-c1ccc(Cl)cc1 [Compound 67, 1-(1-(4-Chlorophenyl)-2,5-dimethyl-1H-pyrrol-3-yl)-2-(cycloheptylamino)ethanone] | 0.5 to 5
5 | Cc1cc(C(=O)CN2CCCC2)c(C)n1-c1cc(F)cc(F)c1 [Compound 22, 1-(1-(3,5-Difluorophenyl)-2,5-dimethyl-1H-pyrrol-3-yl)-2-(pyrrolidin-1-yl)ethanone] | > 5
6 | Cc1cc(C(=O)CN2CCC(S(C)(=O)=O)C2)c(C)n1-c1ccc(Cl)cc1 (stereo not shown) [Compound 51, 1-(1-(4-Chlorophenyl)-2,5-dimethyl-1H-pyrrol-3-yl)-2-(3-(methylsulfonyl)pyrrolidin-1-yl)ethanone] | 0.5 to 5
7 | Cc1cc(C(=O)CN2CCCCC2)c(C)n1-c1ccc(C(=O)OCc2ccccc2)cc1 [Compound 110, trans-Benzyl 4-(2,5-dimethyl-3-(2-(piperidin-1-yl)acetyl)-1H-pyrrol-1-yl)benzoate] | > 5
8 | Cc1cc(Cl)cc(C)c1-n1ccc(C(=O)CN2CCCC2)c1 [Compound 23, 1-(1-(4-Chloro-2,6-dimethylphenyl)-1H-pyrrol-3-yl)-2-(pyrrolidin-1-yl)ethanone] | > 5
9 | Cc1cc(C(=O)CNCC(O)CO)c(C)n1-c1ccc(C#N)cc1 (stereo not shown) [Compound 134, 4-(3-(2-((2,3-Dihydroxypropyl)amino)acetyl)-2,5-dimethyl-1H-pyrrol-1-yl)benzonitrile] | 0.5 to 5
10 | Cc1cc(C(=O)CN2CCCC2)c(C)n1-c1ccc(Br)c(Cl)c1 [Compound 56, 1-(1-(4-Bromo-3-chlorophenyl)-2,5-dimethyl-1H-pyrrol-3-yl)-2-(pyrrolidin-1-yl)ethanone] | 0.5 to 5
11 | Cc1cc(C(=O)CN2CCCC(CNC(=O)OC(C)(C)C)C2)c(C)n1-c1ccc(C#N)cc1 (stereo not shown) [Compound 158, tert-butyl ((1-(2-(1-(4-cyanophenyl)-2,5-dimethyl-1H-pyrrol-3-yl)-2-oxoethyl)piperidin-3-yl)methyl)carbamate] | < 0.5
12 | Cc1cc(C(=O)CN2CCC(O)CC2)c(C)n1-c1ccc(C(=O)O)cc1 [Compound 113, 4-(3-(2-(4-Hydroxypiperidin-1-yl)acetyl)-2,5-dimethyl-1H-pyrrol-1-yl)benzoic acid] | > 5
13 | Cc1cc(C(=O)CC2CCNCC2)c(C)n1-c1ccc(Cl)cc1 [Compound 39, 1-(1-(4-Chlorophenyl)-2,5-dimethyl-1H-pyrrol-3-yl)-2-(piperidin-4-yl)ethanone] | > 5
14 | Cc1cc(Cl)cc(C)c1-n1cccc1C(=O)CN1CCC(O)CC1 [Compound 29, 1-(1-(4-Chloro-2,6-dimethylphenyl)-1H-pyrrol-2-yl)-2-(4-hydroxypiperidin-1-yl)ethanone] | > 5
15 | Cc1cc(C(=O)CN2CCC(O)CC2)c(C)n1-c1cccc2ccccc12 [Compound 9, 1-(2,5-Dimethyl-1-(naphthalen-1-yl)-1H-pyrrol-3-yl)-2-(4-hydroxypiperidin-1-yl)ethanone] | > 5
16 | Cc1cc(C(=O)CC2CCCNC2)c(C)n1-c1ccc(Cl)cc1 (stereo not shown) [Compound 38, 1-(1-(4-Chlorophenyl)-2,5-dimethyl-1H-pyrrol-3-yl)-2-(piperidin-3-yl)ethanone] | > 5
17 | Cc1cc(C(=O)CN2CCC(O)CC2)c(C)n1-c1ccc(F)c(F)c1 [Compound 70, 1-(1-(3,4-Difluorophenyl)-2,5-dimethyl-1H-pyrrol-3-yl)-2-(4-hydroxypiperidin-1-yl)ethanone] | 0.5 to 5
18 | Cc1cc(C(=O)CN2CCCC(CN)C2)c(C)n1-c1ccc(C#N)cc1 (stereo not shown) [Compound 159, 4-(3-(2-(3-(Aminomethyl)piperidin-1-yl)acetyl)-2,5-dimethyl-1H-pyrrol-1-yl)benzonitrile] | < 0.5
19 | Cc1cc(C(=O)CN2CCC(O)CC2)c(C)n1C1CCC1 [Compound 36, 1-(1-Cyclobutyl-2,5-dimethyl-1H-pyrrol-3-yl)-2-(4-hydroxypiperidin-1-yl)ethanone] | > 5
20 | Cc1cc(C(=O)CN2CCC(O)(CN(C)C)C2)c(C)n1-c1ccc(Cl)cc1 (stereo not shown) [Compound 60, 1-(1-(4-Chlorophenyl)-2,5-dimethyl-1H-pyrrol-3-yl)-2-(3-((dimethylamino)methyl)-3-hydroxypyrrolidin-1-yl)ethanone] | 0.5 to 5

Row | Structure (SMILES) | IC50 [µM]
21 | Cc1cc(C(=O)CN2CCCCC2)c(C)n1[C@H]1CC[C@H](C(=O)O)CC1 [Compound 121, trans-4-(2,5-Dimethyl-3-(2-(piperidin-1-yl)acetyl)-1H-pyrrol-1-yl)cyclohexane-1-carboxylic acid] | > 5
22 | Cc1cc(C(=O)CN2CCCCC2)c(C)n1C1CCC(F)(F)CC1 [Compound 76, 1-(1-(4,4-Difluorocyclohexyl)-2,5-dimethyl-1H-pyrrol-3-yl)-2-(piperidin-1-yl)ethanone] | 0.5 to 5
23 | Cc1cc(C(=O)C[N+]2(C)CCCCC2)c(C)n1-c1ccc(Cl)cc1 [Compound 44, 1-(2-(1-(4-Chlorophenyl)-2,5-dimethyl-1H-pyrrol-3-yl)-2-oxoethyl)-1-methylpiperidin-1-ium Iodide] | > 5
24 | Cc1cc(C=O)c(C)n1-c1ccc(Cl)cc1 [Compound 100, 1-(4-Chlorophenyl)-2,5-dimethyl-1H-pyrrole-3-carbaldehyde] | > 5
25 | Cc1cc(C(=O)CN2CCCCC2)c(C)n1-c1ccc(C#N)cc1 [Compound 81, 4-(2,5-Dimethyl-3-(2-(piperidin-1-yl)acetyl)-1H-pyrrol-1-yl)benzonitrile] | < 0.5
26 | CC#Cc1ccc(-n2c(C)cc(C(=O)CN3CCC(O)CC3)c2C)cc1 [Compound 140, 1-(2,5-Dimethyl-1-(4-(prop-1-yn-1-yl)phenyl)-1H-pyrrol-3-yl)-2-(4-hydroxypiperidin-1-yl)ethanone] | 0.5 to 5
27 | Cc1cc(C(=O)CN2CCCCC2)c(C)n1-c1cc(F)cc(F)c1 [Compound 14, 1-(1-(3,5-Difluorophenyl)-2,5-dimethyl-1H-pyrrol-3-yl)-2-(piperidin-1-yl)ethanone] | > 5
28 | Cc1cc(C(=O)CN2CCCCC2)c(C)n1[C@H]1CC[C@@H](C(N)=O)CC1 [Compound 103, cis-4-(2,5-Dimethyl-3-(2-(piperidin-1-yl)acetyl)-1H-pyrrol-1-yl)cyclohexanecarboxamide] | > 5
29 | Cc1cc(C(=O)CN2CCC(OCC(=O)N3CCCCC3)CC2)c(C)n1-c1ccc(Cl)cc1 [Compound 80, 1-(1-(4-Chlorophenyl)-2,5-dimethyl-1H-pyrrol-3-yl)-2-(4-(2-oxo-2-(piperidin-1-yl)ethoxy)piperidin-1-yl)ethanone] | < 0.5
30 | Cc1cc(C(=O)CN2CCC(O)CC2)n(C)c1-c1ccc(Cl)cc1 [Compound 95, 1-(5-(4-Chlorophenyl)-1,4-dimethyl-1H-pyrrol-2-yl)-2-(4-hydroxypiperidin-1-yl)ethanone] | < 0.5
31 | Cc1c(C(=O)CN2CCCCC2)c(C)n(-c2ccc(Cl)cc2)c1C [Compound 137, 1-(1-(4-Chlorophenyl)-2,4,5-trimethyl-1H-pyrrol-3-yl)-2-(piperidin-1-yl)ethanone] | 0.5 to 5
32 | Cc1cc(C(=O)CN2CCCC2)c(C)n1-c1ccc(C#N)cc1 [Compound 85, 4-(2,5-Dimethyl-3-(2-(pyrrolidin-1-yl)acetyl)-1H-pyrrol-1-yl)benzonitrile] | < 0.5
33 | Cc1cc(C(=O)CN2CCC(OCC(=O)NC(C)(C)C)CC2)c(C)n1-c1ccc(Cl)cc1 [Compound 84, N-(tert-Butyl)-2-((1-(2-(1-(4-chlorophenyl)-2,5-dimethyl-1H-pyrrol-3-yl)-2-oxoethyl)piperidin-4-yl)oxy)acetamide] | < 0.5
34 | Cc1cc(C(=O)CN2CCC(O)CC2)c(C)n1-c1cc(Cl)cc(Cl)c1 [Compound 18, 1-(1-(3,5-Dichlorophenyl)-2,5-dimethyl-1H-pyrrol-3-yl)-2-(4-hydroxypiperidin-1-yl)ethanone] | > 5
35 | Cc1cc(C(=O)CNCCOCc2ccccc2)c(C)n1-c1ccc(C#N)cc1 [Compound 42, 4-(3-(2-((2-(Benzyloxy)ethyl)amino)acetyl)-2,5-dimethyl-1H-pyrrol-1-yl)benzonitrile] | > 5
36 | CCCNC(=O)COC1CCN(CC(=O)c2cc(C)n(-c3ccc(Cl)cc3)c2C)CC1 [Compound 83, 2-((1-(2-(1-(4-Chlorophenyl)-2,5-dimethyl-1H-pyrrol-3-yl)-2-oxoethyl)piperidin-4-yl)oxy)-N-propylacetamide] | < 0.5
37 | Cc1cc(C(=O)C[n+]2ccccc2)c(C)n1-c1ccc(Cl)cc1 [Compound 99, 1-(2-(1-(4-Chlorophenyl)-2,5-dimethyl-1H-pyrrol-3-yl)-2-oxoethyl)pyridin-1-ium Chloride] | < 0.5
38 | Cc1c(C(=O)CN2CCCCC2)cn(C)c1-c1ccc(Cl)cc1 [Compound 93, 1-(5-(4-Chlorophenyl)-1,4-dimethyl-1H-pyrrol-3-yl)-2-(piperidin-1-yl)ethanone] | < 0.5
39 | Cc1cc(C(=O)CN2CCC(N(C)C)C2)c(C)n1-c1ccc(Cl)cc1 (stereo not shown) [Compound 55, 1-(1-(4-Chlorophenyl)-2,5-dimethyl-1H-pyrrol-3-yl)-2-(3-(dimethylamino)pyrrolidin-1-yl)ethanone] | 0.5 to 5
40 | Cc1cc(C(=O)CN[C@H](C)C2CCCCC2)c(C)n1-c1ccc(Cl)cc1 [Compound 11, (R)-1-(1-(4-Chlorophenyl)-2,5-dimethyl-1H-pyrrol-3-yl)-2-((1-cyclohexylethyl)amino)ethan-one] | > 5
